Measurements from BigSolDB 2.1.

O=c1[nH]cc(F)c(=O)[nH]1
Details	solubility (mole fraction)
in 1,4-dioxane, 290.2 K	0.00112
in 1,4-dioxane, 291.3 K	0.00123
in 1,4-dioxane, 300.9 K	0.00158
in 1,4-dioxane, 305.2 K	0.00176
in 1,4-dioxane, 306.4 K	0.00187
in 1,4-dioxane, 310.4 K	0.00205
in 1,4-dioxane, 313.3 K	0.00218
in 1,4-dioxane, 313.9 K	0.00225
in 1,4-dioxane, 318 K	0.00247
in 1,4-dioxane, 319.5 K	0.00258
in 1,4-dioxane, 322.8 K	0.00284
in 1,4-dioxane, 329.8 K	0.00332
in THF, 279.6 K	0.00246
in THF, 287 K	0.00273
in THF, 293.2 K	0.00289
in THF, 303.8 K	0.00328
in THF, 308.7 K	0.00349
in THF, 314.6 K	0.00367
in THF, 325.2 K	0.00418
in THF, 328.6 K	0.00454
in acetone, 282.9 K	0.00152
in acetone, 290.2 K	0.00175
in acetone, 298.4 K	0.00199
in acetone, 302.5 K	0.00219
in acetone, 305.1 K	0.00229
in acetone, 307.4 K	0.00244
in acetone, 315.2 K	0.0028
in acetone, 316.9 K	0.00299
in acetone, 322.4 K	0.00304
in acetonitrile, 290.3 K	0.00046
in acetonitrile, 294.6 K	0.00053
in acetonitrile, 299.1 K	0.00062
in acetonitrile, 300.3 K	0.00066
in acetonitrile, 306.6 K	0.00081
in acetonitrile, 307.6 K	0.00083
in acetonitrile, 316 K	0.00102
in acetonitrile, 320.2 K	0.00121
in acetonitrile, 329 K	0.00143
in acetonitrile, 332.3 K	0.00162
in ethanol, 281.1 K	0.00099
in ethanol, 286.9 K	0.00124
in ethanol, 291.2 K	0.00137
in ethanol, 297.7 K	0.00167
in ethanol, 306.2 K	0.00206
in ethanol, 309.1 K	0.00216
in ethanol, 314.8 K	0.0026
in ethanol, 315.1 K	0.00267
in ethanol, 322.8 K	0.0032
in ethanol, 323.7 K	0.00329
in ethanol, 325.6 K	0.00366
in ethanol, 329.9 K	0.00399
in ethyl acetate, 291.1 K	0.00041
in ethyl acetate, 297 K	0.00048
in ethyl acetate, 300.6 K	0.00054
in ethyl acetate, 310.8 K	0.00063
in ethyl acetate, 320.3 K	0.00077
in ethyl acetate, 330.6 K	0.00099
in isopropanol, 282.1 K	0.00085
in isopropanol, 284.6 K	0.00089
in isopropanol, 286.8 K	0.00102
in isopropanol, 294.9 K	0.00119
in isopropanol, 301.3 K	0.00147
in isopropanol, 302.4 K	0.00163
in isopropanol, 308 K	0.00188
in isopropanol, 311.6 K	0.00217
in isopropanol, 316.2 K	0.00237
in isopropanol, 318 K	0.00258
in isopropanol, 323 K	0.00301
in isopropanol, 327.5 K	0.00346
in isopropanol, 330 K	0.00381
in methanol, 280 K	0.00165
in methanol, 287.7 K	0.00216
in methanol, 295.8 K	0.00289
in methanol, 306.8 K	0.00379
in methanol, 318.4 K	0.00502
in methanol, 326 K	0.00581
in methanol, 328.8 K	0.00661
in n-butanol, 280.1 K	0.00058
in n-butanol, 283 K	0.00059
in n-butanol, 287.8 K	0.00086
in n-butanol, 299.5 K	0.00103
in n-butanol, 303.4 K	0.00121
in n-butanol, 306.3 K	0.00141
in n-butanol, 314.8 K	0.00182
in n-butanol, 325.8 K	0.0026
in n-butanol, 327 K	0.00267
in n-butanol, 331.5 K	0.00313
in n-propanol, 280.8 K	0.00082
in n-propanol, 282.4 K	0.00089
in n-propanol, 291.2 K	0.00098
in n-propanol, 294.5 K	0.00108
in n-propanol, 298.4 K	0.00121
in n-propanol, 302.2 K	0.00123
in n-propanol, 308.6 K	0.00149
in n-propanol, 313 K	0.00172
in n-propanol, 315.1 K	0.00179
in n-propanol, 318.3 K	0.00208
in n-propanol, 322.3 K	0.00224
in n-propanol, 324.3 K	0.00245
in n-propanol, 326.2 K	0.00263
in water, 280.1 K	0.00091
in water, 282.5 K	0.00093
in water, 290.8 K	0.00124
in water, 294.5 K	0.00147
in water, 304.4 K	0.0021
in water, 312.1 K	0.00288
in water, 317.5 K	0.00337
in water, 323 K	0.00402
